Laboratory results published in patent US7572815B2, “Amide derivative” (Ajinomoto Co., Inc., priority 2003, dated 2009).

Test system: male ICR mouse
Test: Acetic acid-induced writhing method
Assay type: in vivo
Conditions: intraperitoneal, 30 minutes before 0.8% acetic acid
Protocol: The effect of the test compound was considered using male ICR mouse (4-week-old) according to a writhing test method induced by acetic acid. For intraperitoneal administration of a test compound and a standard product, the test compound was dissolved in a saline containing 5% DMSO and 5% Tween 80 to a suitable concentration. The test compound was administered 30 minutes before intraperitoneal administration of 0.8% acetic acid solution (diluted with saline), and the number of writhing was measured for 15 minutes from 5 minutes after acetic acid administration. A saline containing 5% DMSO and 5% Tween 80 was intraperitoneally administered to all control groups (vehicle administration group). Using indomethacin as a standard product, the same test was performed.
The number of writhing by each test compound is shown in FIG. 1, and the number of writhings by indomethacin is shown in FIG. 2.

Compound: CCN(CCCC(=O)Nc1ccccc1Br)c1cccc(C)c1 [Example 52, N-(2-bromophenyl)-4-(ethyl-3-methylanilino)butanamide]
- Inhibition ratio (%) of number of writhing (dose 10 mg/kg): 19%
- Inhibition ratio (%) of number of writhing (dose 20 mg/kg): 67%

Compound: COc1ccc2c(c1)c(CC(=O)O)c(C)n2C(=O)c1ccc(Cl)cc1 [indomethacin, reference compound]
- Inhibition ratio (%) of number of writhing (dose 10 mg/kg): 31%
